The values below are quoted from earlier work in patent US6054469A, “Substituted tetrahydropyridine derivatives acting on 5-HT receptors” (Merck Sharp & Dohme Ltd., priority 1995, dated 2000).

The conditions of the data set: therapeutic doses.

For the molecule `CNS(=O)(=O)Cc1ccc2[nH]cc(CCN(C)C)c2c1` [sumatriptan], the “adverse events on administration to humans” value is on record as “adverse cardiovascular events”.
